Earlier results, collected in patent US20080004279A1, “Use of C-Kit Inhibitors for Treating Plasmodium Related Diseases” (priority 2004, published 2008).
Blank lines part the entries; values can stand above or below the compound they belong to.

What was measured:
[1] = tested on: GPI-induced NO production in macrophages and vascular endothelial cells

IC50 (membrane bound PTK; read-out: inhibition of membrane bound PTK activity, IC50, dose dependent, P. falciparum): 45 µM
Compound: CCN(CC)CCCC(C)Nc1ccnc2cc(Cl)ccc12 (stereo not drawn) [Chloroquine]
mode of inhibition of PTK with respect to ATP (membrane bound PTK; kinetic studies): noncompetitive | mode of inhibition of PTK with respect to peptide substrate (membrane bound PTK; kinetic studies): competitive inhibitor

Compound: O=c1c(-c2ccc(O)cc2)coc2cc(O)cc(O)c12 [genistein]
release of NO by parasite extracts and by GPI ([1]; GPI alone or in combination with IFN-gamma): inhibited

Compound: S=C(S)N1CCCC1 [pyrrolidine dithiocarbamate]
GPI-induced NO production / release [1]: blocked

Compound: calphostin C
GPI-induced NO production / release [1]: blocked
